Assay results published in patent US20240271082A1, “[…]-MODIFIED SAC[…] STRAINS AS PR[…] […] AGENTS” (Fzata, Inc., priority 2021, published 2024).

Experiments:
[1] = system: S. boulardii (Sb); experiment: Methotrexate effective dose in S. boulardii; assay type: cell-based; details: MTX alone, up to 500 nM, 24 hour reading
Method: Cells were seeded at OD=0.2, 24 hour reading.

[2] = target: hTNF-α (Homo sapiens, UniProt P01375); experiment: Neutralization of human TNF-α cytotoxicity on L929 cells; details: read-out: IC50, block hTNF-α-induced cytotoxicity
Sequence of hTNF-α (P01375 77-233 limits assumed): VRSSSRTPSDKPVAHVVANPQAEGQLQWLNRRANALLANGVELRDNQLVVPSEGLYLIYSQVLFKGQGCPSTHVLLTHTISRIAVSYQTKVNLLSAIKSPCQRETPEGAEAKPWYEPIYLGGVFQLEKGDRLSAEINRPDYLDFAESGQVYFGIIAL
Method: After 24h incubation, the antibody-mediated inhibitions of cytotoxicity were measured.

[3] = system: patients with COVID-19 pneumonia and systemic hyperinflammation; details: human, in vivo; cited from earlier work
[4] = system: Crohn's disease; details: systemic administration; cited from earlier work

CN(Cc1cnc2nc(N)nc(N)c2n1)c1ccc(C(=O)N[C@@H](CCC(=O)O)C(=O)O)cc1 [MTX, methotrexate]
growth inhibition of S. boulardii [1]: not enough to cause an effect on growth inhibition

Adalimumab [Humira]
IC50 [2]: 0.028 nM

Mavrilimumab: investigational fully-human monoclonal antibody that targets GM-CSF receptor alpha
proportion of patients alive and off oxygen therapy at day 14 [3]: hyperinflammation. Unfortunately, there was no significant difference

infliximab: anti-TNF monoclonal antibody
clinical response in Crohn's disease [4]: drastic clinical improvement
